The numbers were not newly measured in PubChem BioAssay AID1259409 (Chemical Carcinogenesis Research Information System (CCRIS), 2018), which cites them from elsewhere.

The structures appear in SMILES notation. “And” between values parts separate entries of the source, which are not always exact repeats. Identical values can stand only once.

The data set has as its system rodent chemically induced tumor inhibition, incidence and multiplicity. Description: CCRIS tumor inhibitor studies. The settings on record: Promoter: NONE USED.

Turning to `CC1=C(/C=C/C(C)=C/C=C/C(C)=C/C=C/C=C(C)/C=C/C=C(C)/C=C/C2=C(C)CCCC2(C)C)C(C)(C)CCC1`, the outcome (Carcinogen: N-METHYL-N'-NITRO-N-NITROSOGUANIDINE, 70-25-7, Dose [Inhibitor]: 0, 0.4% IN DIET FOR 2 WK PRIOR TO FIRST CARCINOGEN DOSE FOLLOWED BY 0, 0.2% IN DIET FOR 52 WK (STUDY DURATION: 54 WK), Dose [Inhibitor]: 0, 0.4% IN DIET FOR 2 WK PRIOR TO FIRST CARCINOGEN DOSE FOLLOWED BY 0, 0.2% IN DIET FOR 52 WK (STUDY DURATION: 54 WK), Route [Inhibitor]: ORAL, Species: RAT, Strain/Sex: WISTAR/MALE, Target Tissue: Type of Lesion: SMALL INTESTINE: FIBROSARCOMA, Dose [Carcinogen]: 80 UG/ML IN DRINKING WATER FOR 52 WK) is reported as 0/36 (0%), 1/35 (3%), -300%, not calculated. Moreover, the “tumour outcome (control, treated, inhibition, significance)” value runs as follows: (Carcinogen: N-METHYL-N'-NITRO-N-NITROSOGUANIDINE, 70-25-7, Dose [Inhibitor]: 0, 0.4% IN DIET FOR 2 WK PRIOR TO FIRST CARCINOGEN DOSE FOLLOWED BY 0, 0.2% IN DIET FOR 52 WK (STUDY DURATION: 54 WK), Dose [Inhibitor]: 0, 0.4% IN DIET FOR 2 WK PRIOR TO FIRST CARCINOGEN DOSE FOLLOWED BY 0, 0.2% IN DIET FOR 52 WK (STUDY DURATION: 54 WK), Route [Inhibitor]: ORAL, Species: RAT, Strain/Sex: WISTAR/MALE, Target Tissue: Type of Lesion: SMALL INTESTINE: LEIOMYOMA, Dose [Carcinogen]: 80 UG/ML IN DRINKING WATER FOR 52 WK) 1/36 (3%), 0/35 (0%), 100%, not calculated; (Carcinogen: NONE USED, Dose [Inhibitor]: 0, 0.005% IN DRINKING WATER AD LIBITUM FOR 40 WK (STUDY DURATION: 40 WK), Route [Inhibitor]: ORAL, Species: MOUSE, Strain/Sex: C3H/HE/MALE, Target Tissue: Type of Lesion: LIVER: TUMOR) 100%, 100%, 0%, not significant; (Carcinogen: NONE USED, Dose [Inhibitor]: 0, 0.005% IN DRINKING WATER FOR 40 WK (STUDY DURATION: 40 WK), Route [Inhibitor]: ORAL, Species: MOUSE, Strain/Sex: C3H/HE/MALE, Target Tissue: Type of Lesion: LIVER: TUMORS) 16/16 (100%), 16/16 (100%), 0%, not significant; (Carcinogen: NONE USED, Dose [Inhibitor]: 0, 0.05% IN DRINKING WATER AD LIBITUM FOR 40 WK (STUDY DURATION: 40 WK), Route [Inhibitor]: ORAL, Species: MOUSE, Strain/Sex: C3H/HE/MALE, Target Tissue: Type of Lesion: LIVER: TUMOR) 100%, 100%, 0%, not significant; (Carcinogen: NONE USED, Dose [Inhibitor]: 0, 0.05% IN DRINKING WATER FOR 40 WK (STUDY DURATION: 40 WK), Route [Inhibitor]: ORAL, Species: MOUSE, Strain/Sex: C3H/HE/MALE, Target Tissue: Type of Lesion: LIVER: TUMORS) 16/16 (100%), 17/17 (100%), 0%, not significant; (Carcinogen: NONE USED, Dose [Inhibitor]: 0, 2.5 MG/D IN DRINKING WATER FROM 8 MO OF AGE (STUDY DURATION: 15 MO), Route [Inhibitor]: ORAL, Species: MOUSE, Strain/Sex: C3H/FEMALE, Target Tissue: Type of Lesion: MAMMARY GLAND: TUMOR) 12/20 (60%), 4/19 (21%), 65%, not calculated. The “tumour outcome (control, treated, inhibition, significance)” value is 14/21 (67%), 6/20 (25%), 63%, p=0.0189 and 14/21 (67%), 5/18 (28%), 58%, p=0.0154 (Carcinogen: UV-B IRRADIATION (HANOVIA QUARTZ CONTACT LAMP IN 290-320 NM RANGE), Dose [Inhibitor]: 0.4 ML OF BEADLET SOLUTION CONTAINING 0.1 G/4 ML 3/WK FOR 1 MO FOLLOWED BY 0.2 ML OF BEADLET SOLUTION CONTAINING 0.1 G/4, Route [Inhibitor]: INTRAPERITONEAL, Species: MOUSE, Strain/Sex: ALBINO, Target Tissue: Type of Lesion: SKIN: SQUAMOUS CELL CARCINOMA, Dose [Carcinogen]: 6.5 KJ/SQ M 3/WK FOR 15 MO BEGINNING 1 MO POST AGENT DOSE); 4/9 (44%), 2/7 (29%), 34%, not significant (Carcinogen: UV-B IRRADIATION (WESTINGHOUSE FS-20 SUNLAMP 55% IN 290-320 NM RANGE), Dose [Inhibitor]: 3.3 G/100 G OF PELLETIZED FEED BEGINNING 10 WK PRIOR TO CARCINOGEN DOSE TO 24 WK POST CARCINOGEN DOSE (STUDY DURATION: 3, Route [Inhibitor]: ORAL, Species: MOUSE, Strain/Sex: SKH, Target Tissue: Type of Lesion: SKIN: TUMOR, Dose [Carcinogen]: 80 KJ/SQ M TOTAL ENERGY DURING A 220 MINUTE SINGLE EXPOSURE); 81%, 67%, 17%, not significant (Carcinogen: UVB IRRADIATION, Dose [Inhibitor]: 0, 1% IN DIET FOR DURATION OF STUDY BEGINNING 3 WK PRIOR TO IRRADIATION (STUDY DURATION: 33 WK), Route [Inhibitor]: ORAL, Species: MOUSE, Strain/Sex: C3H/HEN/FEMALE, Target Tissue: Type of Lesion: SKIN: TUMOR, Dose [Carcinogen]: 6 J/M2/SEC 30 MIN/D, 5 D/WK FOR 27 WK).
